Each structure is given as a SMILES string.

The test system of this assay is STAT1 (phosphorylated at Tyr701) in NCI-H1373 cells. Kind of assay: Phospho-STAT1 (Tyr701) LANCE Ultra TR-FRET Detection Assay. Format: cell-based. The settings on record: Homo sapiens, 48 hours, induction of pSTAT1, normalized to 10 uM positive control and DMSO, 4-parameter fit, read-out: NH1373 pSTAT1 EC50. Here is the method: Phospho-STAT1 (Tyr701 LANCE Ultra TR-FRET Detection Assay
LANCE Ultra phospho-STAT1 (Tyr701) kits available from Perkin Elmer are designed for the detection of phosphorylated STAT1 in cell lysates using a simple, homogeneous LANCE Ultra sandwich assay (Cat. #TRF4028M). This assay is intended for assessing compound induction of endogenous levels of cellular STAT1 (phosphorylated at Tyr701) in NCI-H1373 cells. The NCI-H1373 cells are cultured in RPMI 1640 media containing 10% heat inactivated FBS, GlutaMAX, 1% Penicillin-Streptomycin. An Echo acoustic liquid handler is used to transfer 60 nanoliters of compound dilutions using the Echo Qualified, 384-well polypropylene microplate clear flat bottom source plates into a Greiner (#781080) cell culture microplate. NCI-H1373 cells are seeded into these compound-spotted culture plates at 30,000 cells/well in a 60 uL volume in growth media. The plates are incubated in a 5% CO2 humidified incubator at 37° C. for 48 hours. […] Briefly, 20 μL of supplemented lysis buffer is added to each well and allowed to shake for 1 hour at 400 rpm. Next, 5 ul of remixed antibody solutions (vol/vol) prepared in detection buffer are added to each well and allowed to incubate at room temperature overnight. After spinning the plate down at 300 rpm for […], the plate is read on an EnVision plate reader set up for Eu3+ Cryptate and fluorescence emission is measured at two different wavelengths (665 nm and 620 nm).
For `O=C(CCCCCc1cc(C(F)(F)F)c(=O)[nH]n1)N1CCN(c2ncc(C(F)(F)F)cn2)CC1` [Example 2, 6-(6-oxo-6-(4-(5-(trifluoromethyl)pyrimidin-2-yl)piperazin-1-yl)hexyl)-4-(trifluoromethyl)pyridazin-3(2H)-one], the EC50 is not below 10 µM.

`O=C(CCc1ccccc1-c1cc(C(F)(F)F)c(=O)[nH]n1)N1CCN(c2ncc(C(F)(F)F)cn2)CC1` [Example 3, 6-(2-(3-oxo-3-(4-(5-(trifluoromethyl)pyrimidin-2-yl)piperazin-1-yl)propyl)phenyl)-4-(trifluoromethyl)pyridazin-3(2H)-one]: the EC50 was not below 10 µM.

With `O=C(CCCc1ccccc1-c1cc(C(F)(F)F)c(=O)[nH]n1)N1CCN(c2ncc(C(F)(F)F)cn2)CC1` [Example 5, 6-(2-(4-oxo-4-(4-(5-(trifluoromethyl)pyrimidin-2-yl)piperazin-1-yl)butyl)phenyl)-4-(trifluoromethyl)pyridazin-3(2H)-one], the EC50 was not below 10 µM.

On to `CC(C)(CCCc1cc(C(F)(F)F)c(=O)[nH]n1)C(=O)N1CCN(c2ncc(C(F)(F)F)cn2)CC1` [Example 10, 6-(4,4-dimethyl-5-oxo-5-(4-(5-(trifluoromethyl)pyrimidin-2-yl)piperazin-1-yl)pentyl)-4-(trifluoromethyl)pyridazin-3(2H)-one], for which the EC50 is not below 10 µM.

As to `O=C(c1cccc(Oc2cc(C(F)(F)F)c(=O)[nH]n2)c1)N1CCN(c2ncc(C(F)(F)F)cn2)CC1` [Example 35, 4-(trifluoromethyl)-6-(3-(4-(5-(trifluoromethyl)pyrimidin-2-yl)piperazine-1-carbonyl)phenoxy)pyridazin-3(2H)-one], the EC50 is not below 10 µM.

Regarding `O=C(CCCNc1c[nH]c(=O)c(C(F)(F)F)c1)N1CCN(c2ncc(C(F)(F)F)cn2)CC1` [Example 41, 5-((4-oxo-4-(4-(5-(trifluoromethyl)pyrimidin-2-yl)piperazin-1-yl)butyl)amino)-3-(trifluoromethyl)pyridin-2(1H)-one], the EC50 is not below 10 µM.

Turning to `O=C([C@H]1CN(c2cc(C(F)(F)F)c(=O)[nH]n2)CCO1)N1CCN(c2ncc(C(F)(F)F)cn2)CC1` [Example 45, (R)-4-(trifluoromethyl)-6-(2-(4-(5-(trifluoromethyl)pyrimidin-2-yl)piperazine-1-carbonyl)morpholino)pyridazin-3(2H)-one], the half-maximal effective concentration (EC50) is not below 10 µM.

On to `O=c1[nH]nc(N[C@]23CO[C@](C(=O)N4CCN(c5ncc(C(F)(F)F)cn5)CC4)(C2)C3)cc1C(F)(F)F` [Example 46, 5-(trifluoromethyl)-3-[[1-[4-[5-(trifluoromethyl)pyrimidin-2-yl]piperazine-1-carbonyl]-2-oxabicyclo[2.1.1]hexan-4-yl]amino]-1H-pyridazin-6-one], for which the concentration giving a half-maximal response (EC50) was not below 10 µM.

Turning to `O=c1[nH]nc(N[C@]23CC[C@](C(=O)N4CCN(c5ncc(C(F)(F)F)cn5)CC4)(C2)C3)cc1C(F)(F)F` [Example 48, 5-(trifluoromethyl)-3-[[4-[4-[5-(trifluoromethyl)pyrimidin-2-yl]piperazine-1-carbonyl]-1-bicyclo[2.1.1]hexanyl]amino]-1H-pyridazin-6-one], the EC50 was not below 10 µM.

`O=c1[nH]nc(NCC2(N3CCN(c4ncc(C(F)(F)F)cn4)CC3)COC2)cc1C(F)(F)F` [Example 59, 5-(trifluoromethyl)-3-[[3-[4-[5-(trifluoromethyl)pyrimidin-2-yl]piperazin-1-yl]oxetan-3-yl]methylamino]-1H-pyridazin-6-one]: the concentration giving a half-maximal response (EC50) is not below 10 µM.

In the case of `O=C([C@H]1CC[C@@H](Nc2cc(C(F)(F)F)c(=O)[nH]n2)C1)N1CCN(c2ncc(C(F)(F)F)cn2)CC1` [Example 63, 5-(trifluoromethyl)-3-[[(1R,3S)-3-[4-[5-(trifluoromethyl)pyrimidin-2-yl]piperazine-1-carbonyl]cyclopentyl]amino]-1H-pyridazin-6-one], the EC50 is not below 10 µM.

As usually defined, the EC50 is the concentration at which the effect is half-maximal.
